Measurements reported in patent publication US4103082A, “Aminocyclitol derivatives and process for producing the same” (priority 1975, dated 1978).
≈ marks a conversion by molar mass, not a printed value.

Assays:
[1] = system: Staphylococcus aureus C73-10; test: antibacterial activity (Minimum Inhibitory Concentration); assay type: cell-based; settings: C7310; Staphylococcus aureus C73-10; read-out: MIC
Proteus species C73-23 = test: as above; assay type: cell-based; settings: Proteus species C73-23; read-out: MIC
E. coli C73-1 = test: as above; assay type: cell-based; settings: Escherichia coli, C731; E. coli C73-1; read-out: MIC
[2] = system: Staphylococcus aureus C73-21; test: as above; assay type: cell-based; settings: C7321; Staphylococcus aureus C73-21; read-out: MIC
Klebsiella 6 = test: paper disk method, inhibitory zone diameter; assay type: cell-based; settings: Klebsiella, 6
[3] = system: Salmonella species C73-30; test: antibacterial activity (Minimum Inhibitory Concentration); assay type: cell-based; settings: C7330
Proteus species C73-25 = test: as above; assay type: cell-based; settings: Proteus species C73-25; read-out: MIC
[4] = system: Bacillus subtilis ATCC 6633; test: as above; assay type: cell-based; settings: ATCC6633; Bacillus subtilis ATCC 6633; read-out: MIC
[5] = system: Vibrio parahaemolyticus K-5; test: as above; assay type: cell-based; settings: K5; Vibrio parahaemolyticus K-5; read-out: MIC
[6] = system: Enterococcus species C73-17; test: as above; assay type: cell-based; settings: C7317; Enterococcus species C73-17; read-out: MIC
[7] = system: Staphylococcus aureus No. 26; test: as above; assay type: cell-based; settings: Staphylococcus aureus No. 26; read-out: MIC
Mycobacterium 607 = test: paper disk method, inhibitory zone diameter; assay type: cell-based; settings: Mycobacterium, 607, read-out: inhibitory zone diameter
[8] = system: Staphylococcus aureus 209P JC-1; test: antibacterial activity (Minimum Inhibitory Concentration); assay type: cell-based; settings: Staphylococcus aureus 209P JC-1; read-out: MIC
Proteus species C73-33 = test: as above; assay type: cell-based; settings: Proteus species C73-33; read-out: MIC
Pseudomonas 1007 = test: paper disk method, inhibitory zone diameter; assay type: cell-based; settings: Pseudomonas, 1007; 2000 γ/ml; read-out: inhibitory zone diameter
[9] = system: Staphylococcus aureus C73-4; test: antibacterial activity (Minimum Inhibitory Concentration); assay type: cell-based; settings: C734; Staphylococcus aureus C73-4; read-out: MIC
microorganisms indicated = test: antimicrobial activities, paper disk method (general statement); assay type: cell-based; settings: Tables 1 to 4
Experimental: The inhibitory activities were determined at various concentrations of the compounds using the paper disk method against the microorganisms indicated and the numerical values show the inhibitory zone diameter in terms of mm.

Klebsiella pneumoniae = test: antibacterial activity (Minimum Inhibitory Concentration); assay type: cell-based; settings: read-out: MIC
[10] = system: E. coli HL-1629 (Kanamycin-resistant strain); test: microbe, parasite or virus in culture; assay type: cell-based; settings: Escherichia coli, read-out: inhibitory zone diameter
Proteus morganii Kono = test: antibacterial activity (Minimum Inhibitory Concentration); assay type: cell-based; settings: Morganella morganii
Proteus species C73-34 = test: as above; assay type: cell-based; settings: Proteus species C73-34; read-out: MIC
[11] = system: Vibrio parahaemolyticus K-3; test: as above; assay type: cell-based; settings: K3; Vibrio parahaemolyticus K-3; read-out: MIC
[12] = system: Shigella dysenteriae Shigae; test: microbe, parasite or virus in culture; assay type: cell-based
Klebsiella 7 = test: paper disk method, inhibitory zone diameter; assay type: cell-based; settings: Klebsiella, 7
[13] = system: Staphylococcus albus PCI-1200A; test: antibacterial activity (Minimum Inhibitory Concentration); assay type: cell-based; settings: PCI1200A; Staphylococcus albus PCI-1200A; read-out: MIC
E. coli C73-12 = test: as above; assay type: cell-based; settings: Escherichia coli, C7312
[14] = system: Vibrio parahaemolyticus K-7; test: as above; assay type: cell-based; settings: K7; Vibrio parahaemolyticus K-7; read-out: MIC
[15] = system: Staphylococcus aureus Smith S-424; test: as above; assay type: cell-based; settings: SMITHS424; Staphylococcus aureus Smith S-424; read-out: MIC
E. coli K-12 = test: paper disk method, inhibitory zone diameter; assay type: cell-based; settings: Escherichia coli, K12, read-out: inhibitory zone diameter
E. coli C73-4 = test: antibacterial activity (Minimum Inhibitory Concentration); assay type: cell-based; settings: Escherichia coli, C734; E. coli C73-4; read-out: MIC
[16] = system: Bacillus subtilis ATCC 6633; test: paper disk method, inhibitory zone diameter; assay type: cell-based; settings: read-out: inhibitory zone diameter
[17] = system: Bacillus anthracis No. 119; test: microbe, parasite or virus in culture; assay type: cell-based
[18] = system: Enterococcus species C73-33; test: antibacterial activity (Minimum Inhibitory Concentration); assay type: cell-based; settings: C7333; Enterococcus species C73-33; read-out: MIC
male ICR mice = test: acute toxicity; settings: intravenous administration, 200 mg/kg
[19] = 2000 γ/ml, read-out: inhibitory zone diameter

Compound `NC[C@H]1O[C@H](O[C@H]2[C@H](O)C[C@H](N)C[C@@H]2N)[C@H](N)[C@@H](O)[C@@H]1O` [6-Deoxyneamine, 6-deoxyneamine] has an MIC [1] of 6.25 µg/mL (≈ 20.4 µM), an MIC (Proteus species C73-23) of 25 µg/mL (≈ 81.6 µM) and an MIC (E. coli C73-1) of 25 µg/mL (≈ 81.6 µM). For the same compound, the MIC [2] was 1.56 µg/mL (≈ 5.09 µM), the zone of inhibition at 250 µg/mL (Klebsiella 6; 250 γ/ml) was 0 mm and the zone of inhibition at 500 µg/mL (Klebsiella 6; 500 γ/ml) was 11.1 mm. It also gave a zone of inhibition at 1000 µg/mL (Klebsiella 6; 1000 γ/ml) of 14.1 mm, a zone of inhibition at 2000 µg/mL (Klebsiella 6; [19]) of 16.4 mm and an MIC [3] of 50 µg/mL (≈ 163 µM). It also gave an MIC (Proteus species C73-25) of 6.25 µg/mL (≈ 20.4 µM), an MIC [4] of 0.78 µg/mL (≈ 2.55 µM) and an MIC [5] of 25 µg/mL (≈ 81.6 µM). It also gave an MIC [6] of 50 µg/mL (≈ 163 µM), an MIC [7] of 6.25 µg/mL (≈ 20.4 µM) and a zone of inhibition at 62.5 µg/mL (Mycobacterium 607; 62.5 γ/ml) of 0 mm. The zone of inhibition at 125 µg/mL (Mycobacterium 607; 125 γ/ml) was 11 mm, the zone of inhibition at 250 µg/mL (Mycobacterium 607; 250 γ/ml) was 16.2 mm and the zone of inhibition at 500 µg/mL (Mycobacterium 607; 500 γ/ml) was 21.7 mm. For the same compound, the zone of inhibition at 1000 µg/mL (Mycobacterium 607; 1000 γ/ml) was 28.3 mm, the zone of inhibition at 2000 µg/mL (Mycobacterium 607; 2000 γ/ml) was 33.6 mm and the MIC [8] was 1.56 µg/mL (≈ 5.09 µM). The MIC (Proteus species C73-33) was 100 µg/mL (≈ 326 µM), the zone of inhibition at 2000 µg/mL (Pseudomonas 1007) was 0 mm and the MIC [9] was 6.25 µg/mL (≈ 20.4 µM). The “antimicrobial activities relative to neamine” value (microorganisms indicated) was “superior to those of the parent compound neamine”, the MIC (Klebsiella pneumoniae) was 25 µg/mL (≈ 81.6 µM) and the zone of inhibition at 500 µg/mL [10] was 0 mm. For the same compound, the zone of inhibition at 1000 µg/mL [10] was 12.5 mm, the zone of inhibition at 2000 µg/mL [10] was 18 mm and the MIC (Proteus morganii Kono) was 12.5 µg/mL (≈ 40.8 µM). For the same compound, the MIC (Proteus species C73-34) was 25 µg/mL (≈ 81.6 µM), the MIC [11] was 1.56 µg/mL (≈ 5.09 µM) and the MIC [12] was 12.5 µg/mL (≈ 40.8 µM). For the same compound, the zone of inhibition at 250 µg/mL (Klebsiella 7; 250 γ/ml) was 0 mm, the zone of inhibition at 500 µg/mL (Klebsiella 7; 500 γ/ml) was 11.2 mm and the zone of inhibition at 1000 µg/mL (Klebsiella 7; 1000 γ/ml) was 15.6 mm. It also gave a zone of inhibition at 2000 µg/mL (Klebsiella 7; [19]) of 17.5 mm, an MIC [13] of 3.13 µg/mL (≈ 10.2 µM) and an MIC (E. coli C73-12) of 12.5 µg/mL (≈ 40.8 µM). The MIC [14] was 25 µg/mL (≈ 81.6 µM), the MIC [15] was 3.13 µg/mL (≈ 10.2 µM) and the zone of inhibition at 7.8 µg/mL (E. coli K-12; 7.8 γ/ml) was 0 mm. The zone of inhibition at 15.6 µg/mL (E. coli K-12; 15.6 γ/ml) was 11.2 mm, the zone of inhibition at 31.2 µg/mL (E. coli K-12; 31.2 γ/ml) was 12.9 mm and the zone of inhibition at 62.5 µg/mL (E. coli K-12; 62.5 γ/ml) was 16 mm. For the same compound, the zone of inhibition at 125 µg/mL (E. coli K-12; 125 γ/ml) was 18.2 mm, the zone of inhibition at 250 µg/mL (E. coli K-12; 250 γ/ml) was 20.3 mm and the zone of inhibition at 500 µg/mL (E. coli K-12; 500 γ/ml) was 21.9 mm. The zone of inhibition at 1000 µg/mL (E. coli K-12; 1000 γ/ml) was 25 mm, the zone of inhibition at 2000 µg/mL (E. coli K-12; 2000 γ/ml) was 26.7 mm and the MIC (E. coli C73-4) was 25 µg/mL (≈ 81.6 µM). For the same compound, the zone of inhibition at 7.8 µg/mL ([16]; ATCC6633, 7.8 γ/ml) was 15 mm, the zone of inhibition at 15.6 µg/mL ([16]; ATCC6633, 15.6 γ/ml) was 17.6 mm and the zone of inhibition at 31.2 µg/mL ([16]; ATCC6633, 31.2 γ/ml) was 21.1 mm. The zone of inhibition at 62.5 µg/mL ([16]; ATCC6633, 62.5 γ/ml) was 22.7 mm, the zone of inhibition at 125 µg/mL ([16]; ATCC6633, 125 γ/ml) was 25.6 mm and the zone of inhibition at 250 µg/mL ([16]; ATCC6633, 250 γ/ml) was 28.2 mm. For the same compound, the zone of inhibition at 500 µg/mL ([16]; ATCC6633, 500 γ/ml) was 31.2 mm, the zone of inhibition at 1000 µg/mL ([16]; ATCC6633, 1000 γ/ml) was 33.2 mm and the zone of inhibition at 2000 µg/mL ([16]; ATCC6633, 2000 γ/ml) was 35.7 mm. For the same compound, the MIC [17] was 12.5 µg/mL (≈ 40.8 µM), the MIC [18] was 25 µg/mL (≈ 81.6 µM) and the “acute toxicity, survival” value (male ICR mice) was “all male ICR mice were survived”.
